Measured values from ChEMBL document CHEMBL1201862, “PubChem BioAssay data set” (2004).
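Cultured in 96-well plates, cells were exposed to test compound for 48 hours across five concentrations. The concentration for 50% growth inhibition is given as GI50.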 Calls of active or inactive are those of the source. Cut-off read from the data, not from the text of the source: active = GI50 up to about 1.1 µM and inactive = higher.

Experiments:
Assay in all cases: DTP human tumour cell line panel, 48 h
SK-MEL-5 = system: SK-MEL-5
A498 = system: A498
Malme-3M = system: Malme-3M
NCI-H23 = system: NCI-H23
DMS-273 = system: DMS-273
SR = system: SR
786-0 = system: 786-0
ACHN = system: ACHN
HOP-62 = system: HOP-62
NCI-H460 = system: NCI-H460
UO-31 = system: UO-31
U-251 = system: U-251
A549 = system: A549
SN12C = system: SN12C
OVCAR-8 = system: OVCAR-8
DLD-1 = system: DLD-1
SNB-19 = system: SNB-19
TK-10 = system: TK-10
M14 = system: M14
M19-MEL = system: M19-MEL
RXF 393 = system: RXF 393
LOX IMVI = system: LOX IMVI
XF498 = system: XF498
NCI-H522 = system: NCI-H522
K562 = system: K562
KM-20L2 = system: KM-20L2
MOLT-4 = system: MOLT-4
KM12 = system: KM12
OVCAR-3 = system: OVCAR-3
COLO 205 = system: COLO 205
SK-MEL-2 = system: SK-MEL-2
SF-268 = system: SF-268
LXFL 529 = system: LXFL 529
HOP-92 = system: HOP-92
SF-539 = system: SF-539
RPMI-8226 = system: RPMI-8226
SK-MEL-28 = system: SK-MEL-28
HL-60 = system: HL-60
SF-295 = system: SF-295
UACC-62 = system: UACC-62
HCC 2998 = system: HCC 2998
UACC-257 = system: UACC-257
IGROV-1 = system: IGROV-1
SNB-78 = system: SNB-78
CCRF-CEM = system: CCRF-CEM
OVCAR-5 = system: OVCAR-5
HCT-15 = system: HCT-15
HCT-116 = system: HCT-116
SK-OV-3 = system: SK-OV-3
HOP-18 = system: HOP-18
DMS-114 = system: DMS-114
SW-620 = system: SW-620
EKVX = system: EKVX
SNB-75 = system: SNB-75
NCI-H226 = system: NCI-H226
CAKI-1 = system: CAKI-1
OVCAR-4 = system: OVCAR-4
HT-29 = system: HT-29

## O=Cn1c2ccccc2c2ccccc21
SK-MEL-5
  GI50: > 100 µM (inactive)
A498
  GI50: > 100 µM (inactive)
Malme-3M
  GI50: > 100 µM (inactive)
NCI-H23
  GI50: > 100 µM (inactive)
DMS-273
  GI50: > 100 µM (inactive)
SR
  GI50: > 100 µM (inactive)
786-0
  GI50: > 100 µM (inactive)
ACHN
  GI50: > 100 µM (inactive)
HOP-62
  GI50: > 100 µM (inactive)
NCI-H460
  GI50: > 100 µM (inactive)
UO-31
  GI50: > 100 µM (inactive)
U-251
  GI50: > 100 µM (inactive)
A549
  GI50: > 100 µM (inactive)
SN12C
  GI50: > 100 µM (inactive)
OVCAR-8
  GI50: > 100 µM (inactive)
DLD-1
  GI50: > 100 µM (inactive)
SNB-19
  GI50: > 100 µM (inactive)
TK-10
  GI50: > 100 µM (inactive)
M14
  GI50: > 100 µM (inactive)
M19-MEL
  GI50: > 100 µM (inactive)
RXF 393
  GI50: > 100 µM (inactive)
LOX IMVI
  GI50: > 100 µM (inactive)
XF498
  GI50: 36.1 µM (inactive)
NCI-H522
  GI50: > 100 µM (inactive)
K562
  GI50: > 100 µM (inactive)
KM-20L2
  GI50: > 100 µM (inactive)
MOLT-4
  GI50: > 100 µM (inactive)
KM12
  GI50: > 100 µM (inactive)
OVCAR-3
  GI50: > 100 µM (inactive)
COLO 205
  GI50: > 100 µM (inactive)
SK-MEL-2
  GI50: > 100 µM (inactive)
SF-268
  GI50: > 100 µM (inactive)
LXFL 529
  GI50: > 100 µM (inactive)
HOP-92
  GI50: > 100 µM (inactive)
SF-539
  GI50: > 100 µM (inactive)
RPMI-8226
  GI50: > 100 µM (inactive)
SK-MEL-28
  GI50: > 100 µM (inactive)
HL-60
  GI50: > 100 µM (inactive)
SF-295
  GI50: > 100 µM (inactive)
UACC-62
  GI50: > 100 µM (inactive)
HCC 2998
  GI50: > 100 µM (inactive)
UACC-257
  GI50: > 100 µM (inactive)
IGROV-1
  GI50: > 100 µM (inactive)
SNB-78
  GI50: > 100 µM (inactive)
CCRF-CEM
  GI50: > 100 µM (inactive)
OVCAR-5
  GI50: > 100 µM (inactive)
HCT-15
  GI50: > 100 µM
HCT-116
  GI50: > 100 µM (inactive)
SK-OV-3
  GI50: > 100 µM (inactive)
HOP-18
  GI50: 9.64 µM (inactive)
DMS-114
  GI50: > 100 µM (inactive)
SW-620
  GI50: > 100 µM (inactive)
EKVX
  GI50: > 100 µM (inactive)

## c1cc(-c2cn3c(n2)SCC3)ccn1
SK-MEL-5
  GI50: > 100 µM (inactive)
A498
  GI50: > 100 µM (inactive)
Malme-3M
  GI50: > 100 µM (inactive)
SNB-75
  GI50: > 100 µM (inactive)
NCI-H23
  GI50: > 100 µM (inactive)
DMS-273
  GI50: 28.3 µM (inactive)
NCI-H226
  GI50: > 100 µM (inactive)
SR
  GI50: > 100 µM (inactive)
CAKI-1
  GI50: > 100 µM (inactive)
786-0
  GI50: 20.5 µM (inactive)
ACHN
  GI50: > 100 µM (inactive)
HOP-62
  GI50: > 100 µM (inactive)
NCI-H460
  GI50: > 55.3 µM (inactive)
UO-31
  GI50: > 100 µM (inactive)
U-251
  GI50: > 73.3 µM (inactive)
A549
  GI50: > 100 µM (inactive)
OVCAR-4
  GI50: > 100 µM (inactive)
SN12C
  GI50: > 100 µM (inactive)
OVCAR-8
  GI50: > 100 µM (inactive)
DLD-1
  GI50: > 75.7 µM (inactive)
SNB-19
  GI50: > 100 µM (inactive)
TK-10
  GI50: > 100 µM (inactive)
M14
  GI50: > 70.8 µM (inactive)
M19-MEL
  GI50: > 60 µM (inactive)
HT-29
  GI50: > 100 µM (inactive)
LOX IMVI
  GI50: > 59.2 µM (inactive)
XF498
  GI50: > 100 µM (inactive)
NCI-H522
  GI50: > 100 µM (inactive)
K562
  GI50: > 31.6 µM (inactive)
KM-20L2
  GI50: > 100 µM (inactive)
MOLT-4
  GI50: > 100 µM (inactive)
KM12
  GI50: > 100 µM (inactive)
OVCAR-3
  GI50: > 100 µM (inactive)
COLO 205
  GI50: > 57.8 µM (inactive)
SK-MEL-2
  GI50: > 100 µM (inactive)
SF-268
  GI50: > 100 µM (inactive)
LXFL 529
  GI50: > 90.6 µM (inactive)
HOP-92
  GI50: > 100 µM (inactive)
SF-539
  GI50: > 44.9 µM (inactive)
RPMI-8226
  GI50: > 65.5 µM (inactive)
HL-60
  GI50: > 38.1 µM (inactive)
SF-295
  GI50: > 100 µM (inactive)
UACC-62
  GI50: > 100 µM (inactive)
HCC 2998
  GI50: > 100 µM (inactive)
UACC-257
  GI50: > 100 µM (inactive)
IGROV-1
  GI50: > 100 µM (inactive)
SNB-78
  GI50: > 100 µM (inactive)
CCRF-CEM
  GI50: > 61.4 µM (inactive)
OVCAR-5
  GI50: > 100 µM (inactive)
HCT-15
  GI50: > 43.2 µM
HCT-116
  GI50: > 42.4 µM (inactive)
SK-OV-3
  GI50: > 100 µM (inactive)
HOP-18
  GI50: > 100 µM (inactive)
DMS-114
  GI50: > 55 µM (inactive)
SW-620
  GI50: > 25.2 µM (inactive)
EKVX
  GI50: > 68.9 µM (inactive)
